The values that follow come from ChEMBL document CHEMBL3507680, “University of Dundee, Gates Library screen for HepG2 cell viability”.

The nature of the series: Human HepG2 cell viability assay in 384 well format. In kind it is toxicity, cell-based. Also on record: dose 125 nL, time 70.5 hour; concentration not given beside the values. Conditions: HepG2 cells, read-out: Inhibition.
`Fc1ccc(Cn2ncc3c2CN(c2noc(C4CC4)n2)C3)cc1`: the cytotoxicity at 70.5 h was -3.43%. In the case of `COCCc1noc(CN(C)c2cc(C)ncn2)n1`, the cytotoxicity at 70.5 h amounted to 17.1%. Turning to `CC(C)[C@@H]1CN(S(=O)(=O)c2cccc(C(=O)O)c2)C[C@H]1N(C)C`, the cytotoxicity at 70.5 h stood at 17.4%. Turning to `COc1c(C2CCCN2CC(=O)Nc2nccs2)c(C)nn1C` (stereo not drawn), the cytotoxicity at 70.5 h is -2.85%. As to `Cc1cccc2c1cnn2CCCNC(=O)CCCC(=O)O`, the cytotoxicity at 70.5 h was -4.18%. For `Cc1cc(S(=O)(=O)Nc2cccc(-n3cccc3)c2)sc1C(=O)O`, the cytotoxicity at 70.5 h was -13%. Next, `CC(=O)N1CCCN(C(C(=O)O)c2cccc(C)c2C)CC1` (stereo not drawn): -12.3%; `O=C1OCCN1Cc1nc(C2(c3ccc(F)cc3)CCOC2)no1` (stereo not drawn): -6.4%. Regarding `COc1cccc(N2CCC(CNCc3cccc(C#N)c3)C2)c1` (stereo not drawn), the cytotoxicity at 70.5 h turned out to be 9.04%. Next, `c1ccc(CN2C[C@@H]3OCCN(CC4CCCO4)[C@@H]3C2)nc1` (stereo partly drawn): -9.93%; `CC(C)OCCCNC(=O)CS(=O)(=O)Cc1ccc(Cl)c(Cl)c1`: -9.73%.

On to `CCN(CC)C(=O)CSc1sc2c(O)cc(=O)[nH]c2c1C(N)=O`, for which the cytotoxicity at 70.5 h was -14.3%.

On to `Cc1nnc(SCC(=O)NCC(c2ccccc2Cl)N(C)C)s1` (stereo not drawn), for which the cytotoxicity at 70.5 h is -7.07%. In the case of `O=C1[C@H]2CN(Cc3nccs3)C[C@H]2CN1c1cncnc1`, the cytotoxicity at 70.5 h is -8.02%.

On to `CCOc1ccc(Cl)c(C(=O)N2CCN(CCO)CC2)n1`, for which the cytotoxicity at 70.5 h is -6.15%. Next, `CCc1noc(C(C)N(C)CC(=O)Nc2ccc(C)cc2)n1` (stereo not drawn): -4.51%. Regarding `Cc1cc(C(N)=O)ccc1NC(=O)c1nc(N2CCCC2)ncc1Cl`, the cytotoxicity at 70.5 h was -4.63%. Regarding `CC(C(=O)NCCOc1ccc2c(c1)OCO2)n1cncn1` (stereo not drawn), the cytotoxicity at 70.5 h was -13.4%. On to `CN1CCCN(c2nc3c(cnn3C(C)(C)C)c(=O)[nH]2)CC1`, for which the cytotoxicity at 70.5 h amounted to 16.5%. Regarding `CCN(C)C(=O)NCC1(CN2CCOCC2)CCCCC1`, the cytotoxicity at 70.5 h is -4.49%. Take `Cn1ccc(CN2CCC(CC(=O)NC3CCCC3)CC2)cc1=O`: the cytotoxicity at 70.5 h stood at 15%. Next, `CC(c1ccc(F)cc1)n1ccnc1-c1cc2n(n1)CCCNC2` (stereo not drawn): -6.66%; `CCC1CCCN(S(=O)(=O)c2cnc3onc(C)c3c2)C1` (stereo not drawn): -4.44%. For the compound `OCCN1CCN(Cc2cn(-c3ccccc3)nn2)CC1`, the cytotoxicity at 70.5 h is -11.9%.

For `O=C(c1cccnc1)N1C[C@@H]2CN(CCN3CCCC3)C(=O)[C@@H]2C1`, the cytotoxicity at 70.5 h is -6.24%. As for `CNC(=O)N1CCOCC1c1c(C)nn(C)c1C` (stereo not drawn), the cytotoxicity at 70.5 h was 2.35%. For the compound `CNC(=O)CN1CCOCC2(C1)CN(C(=O)CC(C)C)CCO2` (stereo not drawn), the cytotoxicity at 70.5 h was -4.88%. `CC(C)c1nn(C)c(Cl)c1CNC1CCOc2ccccc21` (stereo not drawn): the cytotoxicity at 70.5 h is -2.92%. To `Cn1nccc1C(=O)N1CCOC(Cc2cccnc2)C1` (stereo not drawn) belongs 16%; to `O=C(c1ccc(CN2CCCCC2)cc1)N1CCCC1c1cccs1` (stereo not drawn), -0.233%; to `CC(C)(C)NC(=O)CNc1ncccn1`, -8.78%. For `CCc1nc(N)nc(N2CCCC3(CCOCC3)C2)c1C`, the cytotoxicity at 70.5 h is -7.63%. For the compound `Cc1cc(Nc2ccc3c(c2)CC(=O)N3)nc(C(C)C)n1`, the cytotoxicity at 70.5 h was -6.82%. As for `Cc1ccnn1CC(=O)N(C)Cc1cnn(-c2ccccc2)c1`, the cytotoxicity at 70.5 h was -1.98%. For `CCN1CCN(Cc2nc(CCc3ccccc3)n[nH]2)CC1`, the cytotoxicity at 70.5 h is 29.9%.

Take `Cn1cc(CN2CCC[C@]3(C[C@H](Oc4ncccc4F)CO3)C2)cn1`: the cytotoxicity at 70.5 h was -5.41%. `COCCOCC(=O)N1CCc2cc(Cl)cc(Cl)c2C1`: the cytotoxicity at 70.5 h was -6.61%. `Cn1cc(C#N)cc1C(=O)N1CCC2(CCCN(CC3CCC3)C2=O)C1` (stereo not drawn): the cytotoxicity at 70.5 h is -4.46%. As to `CCC(CC)NC(=O)Cn1cc(C(N)=O)c(-c2ccccc2)n1`, the cytotoxicity at 70.5 h was 17.3%. For the compound `Cc1n[nH]c(C2CN(C(=O)c3cc4c(s3)CCCC4)CCO2)n1` (stereo not drawn), the cytotoxicity at 70.5 h was -4.81%. On to `CCc1ccc(C(=O)NCc2ccnc(C)n2)cc1`, for which the cytotoxicity at 70.5 h is -8.72%. For the compound `COC(=O)C(c1ccccc1)N(C)C(=O)c1ccnc(C)n1` (stereo not drawn), the cytotoxicity at 70.5 h was -8.31%. For the compound `O=C1CO[C@@H]2CN(CC3CCOCC3)C[C@H]2N1CC1CC1`, the cytotoxicity at 70.5 h was -2.81%. Take `O=C(Nc1ccnc(OC2CCOC2)c1)c1ccccc1Cl` (stereo not drawn): the cytotoxicity at 70.5 h is -4.06%.

With `Cc1nc(CN2C[C@@H]3CN(C(=O)c4cccn4C)C[C@@H]3C2=O)cs1`, the cytotoxicity at 70.5 h was -3.56%. Consider `CN1C[C@H]2CNC[C@@]2(C(=O)N2CCN(c3ncccc3C#N)CC2)C1`, for which the cytotoxicity at 70.5 h was -6.13%. With `CN1N=C(C(=O)N2CCCC(n3cccn3)C2)CCC1=O` (stereo not drawn), the cytotoxicity at 70.5 h was -3.66%.

With `COc1ccc(CN2CCC3(CC2)CCN(c2cnn(C)c2)C3=O)cc1`, the cytotoxicity at 70.5 h was -6.09%.

With `CN(CCOc1ccc(C#N)cc1)CC1CC1`, the cytotoxicity at 70.5 h was 3.53%. Turning to `Cc1cc(CNC(=O)CCc2ccc(S(N)(=O)=O)cc2)no1`, the cytotoxicity at 70.5 h was -11.1%. To `Cc1nc(N2CCOCC2)nc2c1CCN(C(=O)N1CCCC1)CC2` belongs -2.06%; to `CC(NC(=O)c1ccc(=O)n(C)c1)c1ccc(OCC2CC2)c(F)c1` (stereo not drawn), -11.1%. For the compound `Cc1nc(C)n(CC2CCCN(Cc3ccc4c(c3)OCCO4)C2)n1` (stereo not drawn), the cytotoxicity at 70.5 h is -1.48%. Consider `Nc1cnc(-c2cccc3ccnn23)cn1`, for which the cytotoxicity at 70.5 h is 14.2%.

`CC(C(=O)Nc1ccnn1C(C)C)N1CCc2nn(C)c(=O)cc2C1` (stereo not drawn): the cytotoxicity at 70.5 h came to 4.22%. Regarding `O=C1CCC(C(=O)Nc2ccc(=O)n(Cc3ccc(Cl)c(Cl)c3)c2)N1` (stereo not drawn), the cytotoxicity at 70.5 h was -16.6%. To `CCOc1cccc(C(=O)N2CCN(c3nccc(OC)n3)CC2)c1` belongs 23.4%.

As to `O=C1[C@H]2CN(Cc3ccco3)C[C@H]2CN1c1ccsc1`, the cytotoxicity at 70.5 h is -11.1%. In the case of `CCN1CC[C@]2(CN(C(=O)C3CCOCC3)C[C@H]2c2ccccc2)C1=O`, the cytotoxicity at 70.5 h was 0.473%. On to `CCN1CCC(CC(=O)N[C@H](C(=O)O)c2cccc(F)c2F)CC1`, for which the cytotoxicity at 70.5 h was -2.11%. On to `CN(C)C1CCN(C(=O)c2ccc(Cn3ccccc3=O)o2)CC1`, for which the cytotoxicity at 70.5 h came out at 1.64%. Consider `CC(C)NC(=O)N1CCCn2cnc(CO)c2C1`, for which the cytotoxicity at 70.5 h was 6.26%. To `CC(C)N1[C@@H](C(=O)NCCN(C)C)C[C@H]2CN(c3ncccn3)C[C@H]21` belongs -2.96%.

In the case of `COc1coc(CN2CCCC(CCc3ccccc3C)C2)cc1=O` (stereo not drawn), the cytotoxicity at 70.5 h is 2.52%.

Take `CCc1nc(C2CCCN(C(=O)c3cccc(C(N)=O)c3)C2)no1` (stereo not drawn): the cytotoxicity at 70.5 h worked out at 1.02%. Next, `COC(C(=O)NC1CCN(S(C)(=O)=O)CC1)c1ccccc1` (stereo not drawn): 15.6%; `CO[C@H]1CN(C(C)C)C[C@@H]1NC(=O)c1cc(COc2ccccc2)[nH]n1`: -3.71%; `CN(C)CCNC(=O)c1nc2c(o1)CN(c1ncccn1)C2`: -3.63%. Next, `O=C(Cc1cn2ccsc2n1)N1CCCC(n2cncn2)C1` (stereo not drawn): 0.86%; `CN1CC(c2cc(O)nc(NCc3cccc(F)c3)n2)CC1=O` (stereo not drawn): -10.4%. To `CCC1CCCCN1CCc1ccncc1` (stereo not drawn) belongs 29.9%. `O=C(NCc1ccc(OCC2CC2)nc1)C1COc2ccccc2O1` (stereo not drawn): the cytotoxicity at 70.5 h is -5.51%. Turning to `Cc1cc(C)n(C2CCCN(C(=O)Cc3cn4ccsc4n3)C2)n1` (stereo not drawn), the cytotoxicity at 70.5 h is -13.1%. Regarding `C[C@]1(O)CN(CCO)CC[C@@H]1Oc1cccc(F)c1`, the cytotoxicity at 70.5 h is -2.99%. Take `CCCN1C(=O)C2(CCCCC2)NC1c1cn(C)c(=O)n(C)c1=O` (stereo not drawn): the cytotoxicity at 70.5 h is -6.69%.

In the case of `O=S(=O)(Nc1cnc(N2CCCC2)nc1)c1ccc(C(F)(F)F)cc1`, the cytotoxicity at 70.5 h stood at 31.4%. Take `O=C1CCC(=O)N1CCn1nnc(-c2cccc(Cl)c2)n1`: the cytotoxicity at 70.5 h was found to be 1.35%. Next, `Cc1c(C)c2c(c(C)c1O)CC[C@](C)(C(=O)O)O2` [(R)-TROLOX]: -0.808%.

As for `NCCn1nc(C2CCN(Cc3ccc(Cl)c(Cl)c3)C2)c2nccnc21` (stereo not drawn), the cytotoxicity at 70.5 h was -4.77%.

For the compound `COc1ncc(CN2C[C@@H]3C[C@@H](O)CN3C[C@@H]2Cc2ccccc2)cn1`, the cytotoxicity at 70.5 h was found to be 18.8%. As for `Cc1cccc(C(=O)N2CCCCC2c2[nH]ncc2S(C)(=O)=O)c1` (stereo not drawn), the cytotoxicity at 70.5 h is -2.12%. Next, `COc1cc(C(=O)NS(=O)(=O)c2cccc(C#N)c2)cc(OC)c1C`: -9.63%; `COc1ccc(C(=O)NCCCn2ccnc2)c(OC)n1`: 39.9%. Take `CC(C)(C)NC(=O)NC(=O)CNc1c(F)cccc1N1CCCC1`: the cytotoxicity at 70.5 h is -5.38%.

With `CC(C)NC(=O)CN(C)C(=O)c1csc(Cc2ccccc2F)n1`, the cytotoxicity at 70.5 h is -6.85%. Take `CCCS(=O)(=O)N1CC(=O)N(Cc2ccccc2OC)CC(O)C1` (stereo not drawn): the cytotoxicity at 70.5 h is 18.5%. In the case of `CC1=C(CCN2CCCC(O)C2)C(C)(C)CCC1` (stereo not drawn), the cytotoxicity at 70.5 h is 18.9%.

As for `Cc1cc(N(C)C)nc(NCCn2cccn2)n1`, the cytotoxicity at 70.5 h is -10%. `Cc1nc2cc(O)nn2c(C)c1CCC(=O)NCc1cc(Br)cs1`: the cytotoxicity at 70.5 h is -13.2%. On to `Cc1cc(N[C@H]2CCCC[C@@H]2O)n2nccc2n1`, for which the cytotoxicity at 70.5 h stood at 5.62%. In the case of `O=C(NC1CCCN(c2ccc(OC(F)F)cc2)C1)c1cnccn1` (stereo not drawn), the cytotoxicity at 70.5 h is -6.56%. On to `Cc1ccc(CN2CCC3(CCC(=O)N3CC(=O)N(C)C)CC2)s1`, for which the cytotoxicity at 70.5 h was -13.1%. As for `NS(=O)(=O)Cc1cccc(C(=O)N2CCCC(n3cccn3)C2)c1` (stereo not drawn), the cytotoxicity at 70.5 h was 4.57%. `CCOc1ccc([C@@H]2N[C@H](c3nccs3)Cc3ccsc32)cc1OC`: the cytotoxicity at 70.5 h is -7.07%. Next, `CCO[C@H]1CC[C@H]2[C@H]1OCCN2C(=O)c1nn(C)c2ccccc12`: 0.53%; `CCc1cc(NCCN2CCNC2=O)n2nc(C)c(C)c2n1`: -11.4%. As for `CCc1nc(N)nc(N2CCCC3(CCN(C)CC3)CC2)c1C`, the cytotoxicity at 70.5 h turned out to be 0.239%.

Consider `CN(CCc1ccccc1)Cc1nc2c(cnn2C)c(=O)[nH]1`, for which the cytotoxicity at 70.5 h was -10.9%.
